This is an account of results in patent publication US20210154281A1, “CELL-BASED CANCER VACCINES AND CANCER THERAPIES” (Massachusetts Institute of Technology, priority 2019, published 2021).

The test system of data set [1] is B16F10 melanoma tumor cell line. The data set is described as follows: Cell death by AnnexinV/DAPI staining 48 hours after drug treatment. Format: cell-based, mouse. The settings on record: for cell death by DAPI and Annexin V staining: at the concentrations used. As to the method:
For assessment of cell death, floating and attached cells were harvested after 48 hours of treatment with the indicated chemotherapeutic drugs. Attached cells were detached using 5 mM EDTA in PBS. The recovered cells were centrifuged at 250×g for 5 minutes, washed once in PBS containing 0.9 mM Ca2+ and 0.5 mM Mg2+ and then stained with AnnV-FITC for 15 minutes in Annexin binding buffer at room temperature according to the manufacturer's protocol (Biolegend). Cells were co-stained with DAPI at a final concentration of 1 μg/ml for 2 minutes in Annexin binding buffer, brought to a final volume of 500 ul using PBS containing 0.9 mM Ca2^+ and 0.5 mM Mg2^+ and analyzed by flow cytometry.
To identify how DNA-damaging chemotherapy could be optimally used to enhance anti-tumor immune function, cytotoxicity assays were performed using the B16F10 melanoma tumor cell line expressing ovalbumin (B16-Ova). Cells were treated with clinically used chemotherapeutic agents followed by assaying for cell death by DAPI and Annexin V staining 48 hours later.

Data set [2] can be described thus: Cell viability (survival) assay with CellTiter-Glo, 48 hours. Format: cell-based, mouse. The settings on record: mouse, B16F10 melanoma tumor cells, 48 hours, normalized to DMSO-treated control cells. As to the method: (§1) For assays of survival, 15,000 cells were plated per well in a 96-well plate in 100 μl media with 5 replicates per condition. Wells along the four edges of the plate were not used. Following cell attachment, the indicated drugs were added in an equal volume of media, and incubated for an additional 48 hours. The media was then removed and replaced with 100 ul of fresh media at room temperature. Following a 30 minute incubation at room temperature, 50 μl of CellTiter-Glo reagent was added, followed by 2 minutes of gentle mixing. The plate was incubated at room temperature for an additional 10 minutes. 100 μl of supernatant was transferred to a 96-well white opaque plate and luminescence was read on a Tecan microplate reader. Values were normalized to those of DMSO-treated control cells.

In data set [3] the test system is B16F10 melanoma tumor cell line. Described as above. Format: cell-based, mouse. To be noted: at the concentrations used. As for the experimental part: as §1
Data set [4] concerns B16-Ova cells. The data set is described as follows: In vitro cross presentation assay: drug-treated B16-Ova cells, BMDC and OT-1 CD8+ T-cells, IFN-γ+ T-cells by flow cytometry. The class given is cell-based, mouse. As to the method: (§2) B16-Ova or MC-38 Ova cells were treated with various doses of chemotherapeutic drugs for 24 h followed by extensive washing in IMDM (10% FBS, P/S). Subsequently 1×10^6 treated cells were co-cultured with 2.5×10^5 BMDC per well of a 24-well plate for each condition tested. After 24 hours of co-culture, supernatants were removed from each well and the BMDC washed 2-3 times in T-cell media (RPMI containing 10% FBS, 20 mM HEPES, 1 mM sodium pyruvate, 55 uM b-mercaptoethanol, 2 mM L-glutamine, nonessential amino acids and antibiotics). CD8+OT-I T-cells isolated from spleens of OT-I mice were then co-cultured with the BMDC at 125,000 T-cells per well to achieve an effector to target ratio of 0.5. Where indicated, BMDC and/or T-cells were also exposed to chemotherapy drugs. After a 12-15 h incubation, IFN-g producing T-cells were identified and quantified by intra-cellular cytokine staining and flow cytometry using a BD LSR II or Fortessa flow cytometer. Cells were first gated for CD3 expression, then re-gated for CD8 and IFNg expression.
An experimental system was developed to assess dendritic cell-mediated T-cell priming using the B16-Ova cells, in combination with primary bone-marrow derived dendritic cells (BMDC) and OT-I CD8+ T-cells expressing a TCR transgene that specifically recognizes the Ova-derived peptide […] (SEQ ID NO:1) in the context of H2-Kb (OT-1) (Clarke, et al., Immunol Cell Biol., 78(2):110-7 (2000); Hogquist, et al., Cell, 76(1):17-27 (1994)). […] The treated B16-Ova cells/BMDC co-culture was then incubated with purified CD8+ T-cells obtained from the spleens of OT-1 mice, and the appearance of IFNg+CD8 T-cells was measured 12-15 hours later by intracellular staining and subsequent quantification using flow cytometry.

The next data set deals with MC-38-Ova cells. The data set is described as follows: In vitro cross presentation assay: drug-treated MC-38-Ova cells, BMDC and OT-1 CD8+ T-cells. Format: cell-based, mouse. As for the experimental part:
as §2

The test system of data set [5] is B16-Ova cells. The data set is described as follows: HMGB1 in cell culture media by ELISA. Format: cell-based, mouse. To be noted: for HMGB1 (ng/ml) MEAN: culture media 24-48 hours after treatment. As for the experimental part: Cell-free cell culture media was then analyzed by ELISA for HMGB1 according to the manufacturer's protocol.
Data set [6] concerns B16-Ova cells. The data set is described as follows: ATP levels in cell-free culture media by CellTiter-Glo. Format: cell-based, mouse. To be noted: for ATP (nM) MEAN: culture media 24-48 hours after treatment. As to the method: For measurement of ATP levels, cell-free culture media obtained as above was analyzed by CellTiter-Glo according to the manufacturer's protocol. Values were converted to ATP concentrations using a standard curve generated using pure ATP.

The subject of another data set is p38MAPK. The data set is described as follows: Western blotting of cell lysates with anti-phospho-p38 antibody. The class given is cell-based, mouse. The settings on record: B16-Ova cells.
The test system of data set [7] is CT26 mouse colon cancer cells. To be noted: previously reported; cited from earlier work.
The subject of data set [8] is B16-Ova cells. The data set is described as follows: Calreticulin surface exposure by flow cytometry. To be noted: for CALR (%): 24 hours after treatment, representative experiment.
Where [9] appears, read: Mus musculus, B16-F10, 48 hours, read-out: AnnV+DAPI+ (%) Mean.
[10] abbreviates: Mus musculus, B16-F10, 48 hours, read-out: AnnV+DAPI− (%) Mean.
Where [11] appears, read: Mus musculus, B16-F10, 48 hours, read-out: AnnV−DAPI+ (%) Mean.
[12] abbreviates: Mus musculus, B16-F10, 48 hours, read-out: AnnV−DAPI− (%) Mean.

Like-named read-outs stand apart in the source and are kept apart here.

With `CC(=O)O[C@H]1C(=O)[C@@]2(C)[C@H]([C@H](OC(=O)c3ccccc3)[C@]3(O)C[C@H](OC(=O)[C@H](O)[C@@H](NC(=O)c4ccccc4)c4ccccc4)C(C)=C1C3(C)C)[C@]1(OC(C)=O)CO[C@@H]1C[C@@H]2O` [Pac, paclitaxel], the “cell death by DAPI and Annexin V staining” value in data set [1] (48 hours) is “did not induce substantial amounts of cell death”. Besides, the cytotoxicity at 0.2 µM in data set [1] (Mus musculus, B16-F10, 200 nM, 48 hours, read-out: AnnV+DAPI+ (%) Mean) is 4.79%; in [1] (Mus musculus, B16-F10, 200 nM, 48 hours, read-out: AnnV+DAPI− (%) Mean), 7.2%; in data set [1] (Mus musculus, B16-F10, 200 nM, 48 hours, read-out: AnnV−DAPI+ (%) Mean), 2.18%. Further, the viability at 0.2 µM in [1] (Mus musculus, B16-F10, 200 nM, 48 hours, read-out: AnnV−DAPI− (%) Mean) turned out to be 85.8%. The cytotoxicity at 1 µM is 2.98% in data set [1] (setting [9]), 3.03% in data set [1] (setting [10]) and 2.79% in [1] (setting [11]). In addition, the viability at 1 µM in data set [1] (setting [12]) amounted to 91.2%. In data set [2] (0.2 uM), this molecule came in with a viability at 48 h, 0.2 µM of 69.8%. In data set [2], this molecule registered a viability at 48 h, 1 µM of 74%. Further, in data set [3], the growth arrest result is “caused some degree of growth arrest”.

Consider `CCc1c2c(nc3ccc(OC(=O)N4CCC(N5CCCCC5)CC4)cc13)-c1cc3c(c(=O)n1C2)COC(=O)[C@]3(O)CC` [Iri, irinotecan], for which the cytotoxicity at 0.05 µM in [1] (Mus musculus, B16-F10, 50 nM, 48 hours, read-out: AnnV+DAPI+ (%) Mean) came out at 3.79%; in [1] (Mus musculus, B16-F10, 50 nM, 48 hours, read-out: AnnV+DAPI− (%) Mean) it was 0.36%; in data set [1] (Mus musculus, B16-F10, 50 nM, 48 hours, read-out: AnnV−DAPI+ (%) Mean), 1.87%. Further, the viability at 0.05 µM in data set [1] (Mus musculus, B16-F10, 50 nM, 48 hours, read-out: AnnV−DAPI− (%) Mean) is 94%. Further, the cytotoxicity at 0.25 µM is 5.06% in [1] (Mus musculus, B16-F10, 250 nM, 48 hours, read-out: AnnV+DAPI+ (%) Mean); 0.54% in data set [1] (Mus musculus, B16-F10, 250 nM, 48 hours, read-out: AnnV+DAPI− (%) Mean); 1.63% in data set [1] (Mus musculus, B16-F10, 250 nM, 48 hours, read-out: AnnV−DAPI+ (%) Mean). In data set [1] (Mus musculus, B16-F10, 250 nM, 48 hours, read-out: AnnV−DAPI− (%) Mean), the viability at 0.25 µM is 92.8%. Also, the values for the cytotoxicity at 1 µM in data set [1] (setting [9]), in [1] (setting [10]) and in [1] (setting [11]) were 6.38%, 1.74% and 0.89%, respectively. Further, the viability at 1 µM in data set [1] (setting [12]) was determined as 91%. The viability at 48 h, 0.25 µM in [2] (0.25 uM) amounted to 99.8%. In data set [2], this molecule returned a viability at 48 h, 1 µM of 97.9%. In addition, in data set [2] (.05 uM), the viability at 48 h, 0.05 uM turned out to be 96.8%. Further, the growth arrest entry in data set [3] is reported as “caused some degree of growth arrest”.

On to `COc1cccc2c1C(=O)c1c(O)c3c(c(O)c1C2=O)C[C@@](O)(C(=O)CO)C[C@@H]3O[C@H]1C[C@H](N)[C@H](O)[C@H](C)O1` [Dox, doxorubicin], for which the cell death result in data set [1] (10 μM and 50 μM) is on record as “high levels of cell death”. Besides, the “cell death by DAPI and Annexin V staining” value in data set [1] (48 hours) was “caused varying extents of apoptotic and non-apoptotic cell death”. In addition, the cytotoxicity at 10 µM in data set [1] (Mus musculus, B16-F10, 10 uM, 48 hours, read-out: AnnV+DAPI+ (%) Mean) was 48%; in data set [1] (Mus musculus, B16-F10, 10 uM, 48 hours, read-out: AnnV+DAPI− (%) Mean) it was 31.6%; in [1] (Mus musculus, B16-F10, 10 uM, 48 hours, read-out: AnnV−DAPI+ (%) Mean), 0.04%. For the same molecule, the viability at 10 µM in data set [1] (Mus musculus, B16-F10, 10 uM, 48 hours, read-out: AnnV−DAPI− (%) Mean) is 20.4%. Also, the cytotoxicity at 50 µM in [1] (Mus musculus, B16-F10, 50 uM, 48 hours, read-out: AnnV+DAPI+ (%) Mean) was found to be 52.1%; in data set [1] (Mus musculus, B16-F10, 50 uM, 48 hours, read-out: AnnV+DAPI− (%) Mean), 27.1%; in data set [1] (Mus musculus, B16-F10, 50 uM, 48 hours, read-out: AnnV−DAPI+ (%) Mean) it was 0.04%. Moreover, in data set [1] (Mus musculus, B16-F10, 50 uM, 48 hours, read-out: AnnV−DAPI− (%) Mean), the viability at 50 µM amounted to 20.8%. Besides, in [2] (10 uM), the viability at 48 h, 10 µM came to 0.505%. Further, the viability at 48 h, 50 µM in data set [2] (50 uM) is 0.126%. The activating cells result is “effective at activating cells” in the data set with B16-Ova cells [4] (0.5 μM and 1.0 μM); “not effective at activating cells” with B16-Ova cells [4] (10 μM and 50 μM). Further, the “inducing DC-mediated IFN-γ in T-cells” value in the data set with B16-Ova cells [4] (10 and 50 uM (Table 3, Table 4)) is listed as “ineffective”. Besides, the “% CD3+CD8+IFN-γ+ T-cells MEAN” value with B16-Ova cells [4] (B16-Ova cells treated with 10 uM for 24 h) is given as 0.13%; in the data set with B16-Ova cells [4] (B16-Ova cells treated with 50 uM for 24 h) it was 0.28%; in the data set on MC-38-Ova cells (MC-38-Ova cells treated with 10 uM for 24 h), 1.217%; in the data set with MC-38-Ova cells (MC-38-Ova cells treated with 50 uM for 24 h), 0.08667%. In addition, the “IFN-gamma production in CD8+ T-cells” value with B16-Ova cells [4] (specific doses) was “promote IFN-gamma production in CD8+ T-cells”. Moreover, the results for the “HMGB1 (ng/ml) MEAN” value in the data set with B16-Ova cells [5] (10 uM) and in the data set on B16-Ova cells [5] (50 uM) were 77.83 ng/mL and 57.75 ng/mL, respectively. The “HMGB1 release into the media” value in the data set with B16-Ova cells [5] (24-48 hours post-treatment window) is “high levels of HMGB1 release”. Further, the “ATP (nM) MEAN” value in the data set on B16-Ova cells [6] (10 uM) came to 1.11 nM; with B16-Ova cells [6] (50 uM) it was 0.83 nM. Besides, the ATP release result in the data set on B16-Ova cells [6] (after 24 hours of treatment) was “Substantial ATP release”. Further, the p38MAPK activation entry in the data set with p38MAPK is on record as “p38MAPK activation”. Further, the “immunogenic cell death / calreticulin exposure” value in [7] is on record as “induce calreticulin exposure”. Also, the “CALR (%)” value with B16-Ova cells [8] (10 uM) stood at 4.97%; in the data set with B16-Ova cells [8] (50 uM) it was 2.82%. In the data set with B16-Ova cells [8] (24 hours of drug exposure), the “level of externalized calreticulin” value is given as “lowest levels”.
